{
  "source": "the supplement of paper PMC10307832",
  "assay_in_all_cases": "relative viability (nuclei count vs DMSO), 5 days (fraction); higher = more cells survive",
  "key": {"[1]": {"tested_on": "SW 900", "procedure,_shortened": "(§1)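 Relative viability equals treated-well nuclei counts divided by vehicle-well nuclei counts. Counts came from 4× images of lung cancer cell lines grown in 1536-well plates for 5 days after pin-tool dosing on the day after seeding. Dosing used one drug alone or a fixed anchor-drug dose plus five library-drug doses (not always all listed) in √10 steps, and values are medians of duplicate plates.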"}, "[2]": {"tested_on": "ABC-1", "procedure,_shortened": "as §1"}, "[3]": {"tested_on": "HARA", "procedure,_shortened": "as §1"}, "[4]": {"tested_on": "LK-2", "procedure,_shortened": "as §1"}, "[5]": {"tested_on": "NCI-H1792", "procedure,_shortened": "as §1"}, "[6]": {"tested_on": "NCI-H522", "procedure,_shortened": "as §1"}, "[7]": {"tested_on": "NCI-H1993", "procedure,_shortened": "as §1"}, "[8]": {"tested_on": "NCI-H727", "procedure,_shortened": "as §1"}, "[9]": {"tested_on": "LXF-289", "procedure,_shortened": "as §1"}, "[10]": {"tested_on": "PC-3 [JPC-3]", "procedure,_shortened": "as §1"}, "[11]": {"tested_on": "NCI-H3122", "procedure,_shortened": "as §1"}, "[12]": {"tested_on": "NCI-H1944", "procedure,_shortened": "as §1"}, "[13]": {"tested_on": "HOP-62", "procedure,_shortened": "as §1"}, "[14]": {"tested_on": "A-427", "procedure,_shortened": "as §1"}, "[15]": {"tested_on": "NCI-H596", "procedure,_shortened": "as §1"}, "[16]": {"tested_on": "NCI-H322M", "procedure,_shortened": "as §1"}, "[17]": {"tested_on": "EMC-BAC-2", "procedure,_shortened": "as §1"}, "[18]": {"tested_on": "NCI-H2170", "procedure,_shortened": "as §1"}},
  "data": [
    {"smiles": "O=c1cc(-c2cccc3c2Sc2ccccc2S3)oc(N2CCOCC2)c1", "note": "+ NC(=O)Nc1cc(-c2cccc(F)c2)sc1C(=O)N[C@H]1CCCNC1 [AZD7762] (partner 0.2 µM)", "values": [
      {"measurement": "relative viability", "setting": "[1]; first compound 0.253 µM", "result": 0.862},
      {"measurement": "relative viability", "setting": "[1]; first compound 0.8 µM", "result": 0.719},
      {"measurement": "relative viability", "setting": "[1]; first compound 2.53 µM", "result": 0.525},
      {"measurement": "relative viability", "setting": "[1]; first compound 8 µM", "result": 0.418},
      {"measurement": "relative viability", "setting": "[2]; first compound 0.08 µM", "result": 0.738},
      {"measurement": "relative viability", "setting": "[2]; first compound 0.253 µM", "result": 0.7},
      {"measurement": "relative viability", "setting": "[2]; first compound 0.8 µM", "result": 0.714},
      {"measurement": "relative viability", "setting": "[2]; first compound 2.53 µM", "result": 1},
      {"measurement": "relative viability", "setting": "[2]; first compound 8 µM", "result": 0.875},
      {"measurement": "relative viability", "setting": "[3]; first compound 0.08 µM", "result": 0.234},
      {"measurement": "relative viability", "setting": "[3]; first compound 0.253 µM", "result": 0.327},
      {"measurement": "relative viability", "setting": "[3]; first compound 0.8 µM", "result": 0.364},
      {"measurement": "relative viability", "setting": "[3]; first compound 2.53 µM", "result": 0.208},
      {"measurement": "relative viability", "setting": "[3]; first compound 8 µM", "result": 0.256},
      {"measurement": "relative viability", "setting": "[4]; first compound 0.08 µM", "result": 0.468},
      {"measurement": "relative viability", "setting": "[4]; first compound 0.253 µM", "result": 0.331},
      {"measurement": "relative viability", "setting": "[4]; first compound 0.8 µM", "result": 0.374},
      {"measurement": "relative viability", "setting": "[4]; first compound 2.53 µM", "result": 0.219},
      {"measurement": "relative viability", "setting": "[4]; first compound 8 µM", "result": 0.458},
      {"measurement": "relative viability", "setting": "[5]; first compound 0.08 µM", "result": 0.541},
      {"measurement": "relative viability", "setting": "[5]; first compound 0.253 µM", "result": 0.632},
      {"measurement": "relative viability", "setting": "[5]; first compound 0.8 µM", "result": 0.549},
      {"measurement": "relative viability", "setting": "[5]; first compound 2.53 µM", "result": 0.55},
      {"measurement": "relative viability", "setting": "[5]; first compound 8 µM", "result": 0.583},
      {"measurement": "relative viability", "setting": "[6]; first compound 0.08 µM", "result": 0.821},
      {"measurement": "relative viability", "setting": "[6]; first compound 0.253 µM", "result": 0.926},
      {"measurement": "relative viability", "setting": "[6]; first compound 0.8 µM", "result": 0.864},
      {"measurement": "relative viability", "setting": "[6]; first compound 2.53 µM", "result": 0.654},
      {"measurement": "relative viability", "setting": "[6]; first compound 8 µM", "result": 0.813},
      {"measurement": "relative viability", "setting": "[7]; first compound 0.08 µM", "result": 0.707},
      {"measurement": "relative viability", "setting": "[7]; first compound 0.253 µM", "result": 0.763},
      {"measurement": "relative viability", "setting": "[7]; first compound 0.8 µM", "result": 0.556},
      {"measurement": "relative viability", "setting": "[7]; first compound 2.53 µM", "result": 0.749},
      {"measurement": "relative viability", "setting": "[7]; first compound 8 µM", "result": 0.728},
      {"measurement": "relative viability", "setting": "[8]; first compound 0.08 µM", "result": 0.501},
      {"measurement": "relative viability", "setting": "[8]; first compound 0.253 µM", "result": 0.655},
      {"measurement": "relative viability", "setting": "[8]; first compound 2.53 µM", "result": 0.413},
      {"measurement": "relative viability", "setting": "[8]; first compound 8 µM", "result": 0.739},
      {"measurement": "relative viability", "setting": "[9]; first compound 0.08 µM", "result": 1.11},
      {"measurement": "relative viability", "setting": "[9]; first compound 0.253 µM", "result": 1.18},
      {"measurement": "relative viability", "setting": "[9]; first compound 0.8 µM", "result": 1.15},
      {"measurement": "relative viability", "setting": "[9]; first compound 2.53 µM", "result": 1.09},
      {"measurement": "relative viability", "setting": "[9]; first compound 8 µM", "result": 1.12},
      {"measurement": "relative viability", "setting": "[10]; first compound 0.08 µM", "result": 0.721},
      {"measurement": "relative viability", "setting": "[10]; first compound 0.253 µM", "result": 0.745},
      {"measurement": "relative viability", "setting": "[10]; first compound 0.8 µM", "result": 0.758},
      {"measurement": "relative viability", "setting": "[10]; first compound 2.53 µM", "result": 0.766},
      {"measurement": "relative viability", "setting": "[10]; first compound 8 µM", "result": 0.728},
      {"measurement": "relative viability", "setting": "[11]; first compound 0.08 µM", "result": 1.02},
      {"measurement": "relative viability", "setting": "[11]; first compound 0.253 µM", "result": 1.06},
      {"measurement": "relative viability", "setting": "[11]; first compound 0.8 µM", "result": 1.03},
      {"measurement": "relative viability", "setting": "[11]; first compound 2.53 µM", "result": 0.933},
      {"measurement": "relative viability", "setting": "[11]; first compound 8 µM", "result": 1.04},
      {"measurement": "relative viability", "setting": "[12]; first compound 0.08 µM", "result": 0.54},
      {"measurement": "relative viability", "setting": "[12]; first compound 0.253 µM", "result": 0.456},
      {"measurement": "relative viability", "setting": "[12]; first compound 0.8 µM", "result": 0.48},
      {"measurement": "relative viability", "setting": "[12]; first compound 2.53 µM", "result": 0.55},
      {"measurement": "relative viability", "setting": "[12]; first compound 8 µM", "result": 0.51},
      {"measurement": "relative viability", "setting": "[13]; first compound 0.08 µM", "result": 0.477},
      {"measurement": "relative viability", "setting": "[13]; first compound 0.253 µM", "result": 0.61},
      {"measurement": "relative viability", "setting": "[13]; first compound 0.8 µM", "result": 0.869},
      {"measurement": "relative viability", "setting": "[13]; first compound 2.53 µM", "result": 0.493},
      {"measurement": "relative viability", "setting": "[13]; first compound 8 µM", "result": 0.944},
      {"measurement": "relative viability", "setting": "[14]; first compound 0.08 µM", "result": 0.715},
      {"measurement": "relative viability", "setting": "[14]; first compound 0.253 µM", "result": 0.842},
      {"measurement": "relative viability", "setting": "[14]; first compound 0.8 µM", "result": 0.791},
      {"measurement": "relative viability", "setting": "[14]; first compound 2.53 µM", "result": 0.41},
      {"measurement": "relative viability", "setting": "[14]; first compound 8 µM", "result": 0.616},
      {"measurement": "relative viability", "setting": "[15]; first compound 0.08 µM", "result": 1.04},
      {"measurement": "relative viability", "setting": "[15]; first compound 0.253 µM", "result": 1.1},
      {"measurement": "relative viability", "setting": "[15]; first compound 0.8 µM", "result": 1.15},
      {"measurement": "relative viability", "setting": "[15]; first compound 2.53 µM", "result": 1},
      {"measurement": "relative viability", "setting": "[15]; first compound 8 µM", "result": 1.22},
      {"measurement": "relative viability", "setting": "[16]; first compound 0.08 µM", "result": 0.665},
      {"measurement": "relative viability", "setting": "[16]; first compound 0.253 µM", "result": 0.537},
      {"measurement": "relative viability", "setting": "[16]; first compound 0.8 µM", "result": 0.51},
      {"measurement": "relative viability", "setting": "[16]; first compound 2.53 µM", "result": 0.429},
      {"measurement": "relative viability", "setting": "[16]; first compound 8 µM", "result": 0.534},
      {"measurement": "relative viability", "setting": "[17]; first compound 0.08 µM", "result": 1.06},
      {"measurement": "relative viability", "setting": "[17]; first compound 0.253 µM", "result": 1.37},
      {"measurement": "relative viability", "setting": "[17]; first compound 0.8 µM", "result": 0.952},
      {"measurement": "relative viability", "setting": "[17]; first compound 2.53 µM", "result": 1.11},
      {"measurement": "relative viability", "setting": "[17]; first compound 8 µM", "result": 1.2},
      {"measurement": "relative viability", "setting": "[18]; first compound 0.08 µM", "result": 0.842},
      {"measurement": "relative viability", "setting": "[18]; first compound 0.253 µM", "result": 0.868},
      {"measurement": "relative viability", "setting": "[18]; first compound 0.8 µM", "result": 0.996},
      {"measurement": "relative viability", "setting": "[18]; first compound 2.53 µM", "result": 0.792},
      {"measurement": "relative viability", "setting": "[18]; first compound 8 µM", "result": 0.804}
    ]}
  ]
}
